Measurements taken from patent publication US20260216134A1, “CHARGED PI-CONJUGATED MOLECULES FOR THE TREATMENT OF MICROBIAL INFECTIONS” (priority 2023, published 2026).

Tests used:
[1] = system: HEK293 (epithelial-like kidney cells); experiment: Presto Blue viability assay, HEK293; format: cell-based, human; details: HEK293, Presto Blue, 8 h treatment; read-out: IC50 (concentration needed to inhibit cell viability by 50%)
Procedure: (§1) The biocompatibility of charged pi-conjugated compounds with mammalian cell lines was evaluated by studying the effects of different charged pi-conjugated compound concentrations on the viability of two mammalian cell lines: A549 (epithelial-like lung cells) and HEK293 (epithelial-like kidney cells). […] Dose-response curves were used to determine IC50 values, that is, the concentration of charged pi-conjugated compound needed to inhibit cell viability by 50%. […] The MIC of MRSA USA300 was used to calculate the therapeutic index. MRSA USA300 is a major contributor to community-associated MRSA infections, including skin and soft tissue infections, bacteraemia, endocarditis, bone and joint infections and nosocomial infections. […]
(§2) The biocompatibility of charged pi-conjugated compounds with mammalian cell lines was assessed by determining their impact on the mitochondrial activity of human alveolar basal epithelial adenocarcinoma cells (A549) and human embryonic kidney cells (HEK293T) cells, using the Presto Blue assay according to the manufacturer's protocol. […] After 8 h, Presto Blue cell viability reagent (Thermo Fisher Scientific, Waltham, MA, USA) was added to the cells, and after 2 h of incubation, fluorescence was measured using a microplate reader (BioTek Instruments Inc., Winooski, VT, USA). […] The therapeutic index was calculated from the ratio between IC50 and the MIC.

[2] = system: MRSA USA300; experiment: Therapeutic index calculation (IC50 of mammalian cell lines / MIC); details: ratio of average IC50 for A549 and HEK293 to MIC in MRSA USA300
Procedure: as §1, §2

[3] = system: A375 cancer cells (melanoma); experiment: Crystal violet cytotoxicity test in A375 cells without light activation; format: cell-based, human
Procedure: The inhibitory concentration of charged pi-conjugated compounds needed to inhibit the cell growth by 50% (toxicity IC50).
Most of the charged pi-conjugated compounds are aminocyanines which are functionalized with alkyl amine group. The charged pi-conjugated compounds were added to cell cultures of A375 cancer cells (human melanoma) and their cytotoxicity was quantified by the crystal violet test and/or clonogenic assays for cell viability. […] The longer the exposure the most cytotoxic the charged pi-conjugated compounds are towards A375 cells. […] The same behavior is observed: the longer the exposure, the more cytotoxic. All molecules presented here are aminocyanines except GL-261-2 which is a carboxyl-cyanine. […] This was the first time a therapeutic window of concentration that can be tuned to selectively kill cancer and/or protect cells was suspected. In finding this therapeutic window concentration and time of exposure are important variables that should be fine tuned.
Based on the finding described above, a larger set of charged pi-conjugated compounds was evaluated for cytotoxicity against A375 cancer cells as shown in FIG. 25 and FIG. 26.
The IC50 is the concentration needed to inhibit the cell viability by 50%. These molecules in FIG. 25 and FIG. 26 were evaluated by crystal violet assay and using 2 days of exposure.

[4] = system: S. aureus ATCC 25923; experiment: Single-step isolation of spontaneous resistant mutants; format: cell-based, Staphylococcus aureus
Excerpt: FIGS. 10A-10C show the development of resistance and mutation rate of bacterial strains subjected to repeated exposure to charged pi-conjugated compounds. (FIG. 10A) Stepwise development of resistance in B. cereus CECT131123, E. faecalis ATCC 29212, S. aureus ATCC 25923, and S. pneumoniae ATCC 49619. Bacterial strains were repeatedly exposed to charged pi-conjugated compounds or the conventional antibiotics ciprofloxacin (CIP), linezolid (LNZ) and vancomycin (VAN) for over 30 cycles. The y-axis indicates the MIC fold change, reflecting increased resistance over repeated treatment. (FIG. 10B) Mutation rate, represented as the frequency of rifampin-resistant cells, in S. aureus ATCC 25923 subjected to repeated cycles of treatment with charged pi-conjugated compounds or the conventional antibiotic ciprofloxacin (CIP). (FIG. 10C) Single-step resistance assessment of spontaneous mutants. […]
To estimate the occurrence of spontaneous charged pi-conjugated compound-resistant mutants, S. aureus cells cultured overnight were resuspended in PBS to yield 10^10 cells mL^−1 and then plated on both selective (charged pi-conjugated compound-containing) and non-selective LB agar plates. After incubation at 37° C. for 24-48 hours, colonies were counted, and the frequency of charged pi-conjugated compound-resistant mutants was calculated. […]

## C[N+]1=C(/C=C/C2=CC(=C/C=C3/N(CCCCCC(=O)NCCCCCCN)c4ccc5ccccc5c4C3(C)C)/CCC2)C(C)(C)c2c1ccc1ccccc21.Cl.[Cl-] [Cy7.5-amine, Cyanine 7.5-amine]
[1]
  IC50: 6.3 µM
[2]
  therapeutic index: 1.3
[3]
  IC50: 0.5 µM
  cytotoxicity at short exposure: safe and showed low cytotoxicity
[4]; mutants propagated on fresh plates, compared with WT strain
  MIC of spontaneous resistant mutants: MIC indistinguishable from that of the WT
[4]; plates containing 4×, 8×, 16×MIC, resistant CFU / total CFU
  spontaneous mutation rate: ≤ 10^−6
